Assay: Cycle 1 normal organ dosimetry (SPECT/CT, TIACs, OLINDA 2.2.3)
Format: in vivo, human
Conditions: for Absorbed Dose in Cycle 1, Mean / Absorbed Dose in Cycle 1, max / Absorbed Dose in Cycle 1, min: N = 16 patients imaged at cycle 1 and 3; for Absorbed Dose, Mean / Absorbed Dose, max / Absorbed Dose, median / Absorbed Dose, min: Cycle 1, n = 26
Procedure: This Example presents the biodistribution, dosimetry, and pharmacokinetics (PK) results of a PK/Dosimetry sub-study performed as part of a Phase III trial. Twenty-seven (27) patients were administered a target activity of 7.4±10% GBq of ^177Lu-PSMA-I&T and underwent single photon emission computed tomography (SPECT)/computed tomography (CT) imaging at four timepoints (4 h, 24 h, 48 h, and 168 h). Image data was analysed to compute time-activity curves (TACs) and subsequently time-integrated activity coefficients (TIACs) in each organ of interest and in organs showing appreciable and meaningful ^177Lu-PSMA-I&T activity. Organ Level Internal Dose Assessment (OLINDA 2.2.3) was used to compute organ and whole body absorbed radiation doses for each patient.
All participating sites underwent a rigorous site setup process during which all dose calibrators, scanners, and gamma counters used in the sub-study were calibrated. Sites were allowed to enroll patients in the sub-study only after the completion and approval of all site setup processes by Invicro. Patients underwent SPECT/CT imaging, with anatomical coverage typically extending from the salivary glands to the pelvis, following the administration of a targeted 7.4±10% GBq of ^177Lu-PSMA-I&T at cycle 1. SPECT/CT imaging was performed at four timepoints: 4 h, 24 h, 48 h, and 168 h post-injection. Additionally, a subset of patients imaged at Cycle 1 (16 out of 27), were also imaged at Cycle 3 (Table 2).
In general, raw projection data was acquired into a 128×128 matrix with medium energy general purpose (MEGP) collimation using a step and shoot acquisition mode, acquiring 60 projections per detector (180 degrees rotation per detector), 20 seconds per projection, with an acquisition zoom of 1.0, and a 20% (±10%) energy window centered over 208 keV.
A low-dose CT scan was performed prior to beginning the SPECT scan for attenuation correction. Sites were instructed to use the Institutional standard parameters for acquisition of the low-dose CT. Institutional standard reconstruction parameters were used. Scatter correction was required to be applied using a 20% (±10%) scatter window centered over 170 keV.
The imaging data was analyzed using Invicro's VivoQuant software, a validated software used in a 21 CFR § 11-compliant workflow. The general quantification approach was based on the principles detailed in the Medical Internal Radiation Dose (MIRD) Pamphlet No. 16, No 23, and No 26 as appropriate.
SPECT images were calibrated in units of Becquerel (Bq) using a calibration factor derived from a source of known activity, measured during site set up with the same acquisition and reconstruction parameters employed for patient imaging. A patient-specific calibration factor was also derived at each clinical time point after acquisition of the patient SPECT/CT. As a quality control measure, if the patient-specific calibration factor differed by more than 10% from the site set up calibration factor, an investigation was conducted.
Volume of interest (VOI) (kidneys, bladder, liver, lumbar vertebrae L2-L4, lacrimal glands, salivary glands [parotid and submandibular glands], and whole body) were delineated on each dataset by a trained image analyst. […] Organs were segmented either by drawing the entire contour of the organ, or by placing a sphere in a representative region of the organ and then multiplying by the organ's effective mass (based on patient's height and weight). Segmentation methods for each organ are specified in Table 3 and were consistently applied to each patient.
Clearance of the radiopharmaceutical was derived from a data-appropriate fit of each organ's TAC. Depending on the TAC's shape, the data was fitted with the sum of one, two, or three exponentials, or using a rise and fall model. Fitting was performed with in-house Python software. TIACs were calculated through analytical integration of the curve fit extrapolated to infinity. […]

[1] = cycle 1, target 7.4±10% GBq, mean±SD, patient 42-030 excluded

SMILES: O=C(O)CC[C@H](NC(=O)N[C@@H](CCCCNC(=O)CCCCCCC(=O)NCCCC[C@@H](NC(=O)[C@@H](Cc1ccccc1)NC(=O)[C@@H](Cc1ccc(O)c(I)c1)NC(=O)CC[C@H](C(=O)O)N1CCN(CC(=O)O)CCN(CC(=O)O)CCN(CC(=O)O)CC1)C(=O)O)C(=O)O)C(=O)O [^177Lu-PSMA-I&T, (3S,7 S,26R,29R,32R,37R)-29-benzyl-32-(4-hydroxy-3-iodobenzyl)-5,13,20,28,31,34-hexaoxo-37-(4,7,10-tris(carboxymethyl)-1,4,7,10-tetraazacyclododecan-1-yl)-4,6,12,21,27,30,33-heptaazaheptatriacontane-1,3,7,26,37-pentacarboxylic acid; lutetium-177 (III), metal not drawn]
- Absorbed Dose in Cycle 1, Mean (Prostate): 0.02 Gy/GBq
- Absorbed Dose in Cycle 1, max (Prostate): 0.07 Gy/GBq
- Absorbed Dose in Cycle 1, min (Prostate): 0.01 Gy/GBq
- Absorbed Dose, Mean (Rectum): 0.44 Gy/GBq
- Absorbed Dose, max (Rectum): 1.46 Gy/GBq
- Absorbed Dose, median (Rectum): 0.39 Gy/GBq
- Absorbed Dose, min (Rectum): 0.01 Gy/GBq
- Absorbed Dose in Cycle 1, Mean (Rectum): 0.50 Gy/GBq
- Absorbed Dose in Cycle 1, max (Rectum): 1.46 Gy/GBq
- Absorbed Dose in Cycle 1, min (Rectum): 0.01 Gy/GBq
- Absorbed Dose, Mean (Red Marrow): 0.08 Gy/GBq
- Absorbed Dose, max (Red Marrow): 0.49 Gy/GBq
- Absorbed Dose, median (Red Marrow): 0.03 Gy/GBq
- Absorbed Dose, min (Red Marrow): 0.00 Gy/GBq
- Absorbed Dose in Cycle 1, Mean (Red Marrow): 0.05 Gy/GBq
- Absorbed Dose in Cycle 1, max (Red Marrow): 0.28 Gy/GBq
- Absorbed Dose in Cycle 1, min (Red Marrow): 0.00 Gy/GBq
- Absorbed Dose, Mean (Right Colon): 0.25 Gy/GBq
- Absorbed Dose, max (Right Colon): 0.82 Gy/GBq
- Absorbed Dose, median (Right Colon): 0.22 Gy/GBq
- Absorbed Dose, min (Right Colon): 0.01 Gy/GBq
- Absorbed Dose in Cycle 1, Mean (Right Colon): 0.28 Gy/GBq
- Absorbed Dose in Cycle 1, max (Right Colon): 0.82 Gy/GBq
- Absorbed Dose in Cycle 1, min (Right Colon): 0.01 Gy/GBq
- Absorbed Dose, Mean (Salivary Glands): 0.19 Gy/GBq
- Absorbed Dose, max (Salivary Glands): 0.80 Gy/GBq
- Absorbed Dose, median (Salivary Glands): 0.15 Gy/GBq
- Absorbed Dose, min (Salivary Glands): 0.03 Gy/GBq
- Absorbed Dose in Cycle 1, Mean (Salivary Glands): 0.17 Gy/GBq
- Absorbed Dose in Cycle 1, max (Salivary Glands): 0.80 Gy/GBq
- Absorbed Dose in Cycle 1, min (Salivary Glands): 0.03 Gy/GBq
- Absorbed Dose, Mean (Small intestine): 0.05 Gy/GBq
- Absorbed Dose, max (Small intestine): 0.15 Gy/GBq
- Absorbed Dose, median (Small intestine): 0.04 Gy/GBq
- Absorbed Dose, min (Small intestine): 0.01 Gy/GBq
- Absorbed Dose in Cycle 1, Mean (Small intestine): 0.06 Gy/GBq
- Absorbed Dose in Cycle 1, max (Small intestine): 0.15 Gy/GBq
- Absorbed Dose in Cycle 1, min (Small intestine): 0.01 Gy/GBq
- Absorbed Dose, Mean (Spleen): 0.03 Gy/GBq
- Absorbed Dose, max (Spleen): 0.11 Gy/GBq
- Absorbed Dose, median (Spleen): 0.02 Gy/GBq
- Absorbed Dose, min (Spleen): 0.01 Gy/GBq
- Absorbed Dose in Cycle 1, Mean (Spleen): 0.03 Gy/GBq
- Absorbed Dose in Cycle 1, max (Spleen): 0.11 Gy/GBq
- Absorbed Dose in Cycle 1, min (Spleen): 0.01 Gy/GBq
- Absorbed Dose, Mean (Stomach Wall): 0.02 Gy/GBq
- Absorbed Dose, max (Stomach Wall): 0.07 Gy/GBq
- Absorbed Dose, median (Stomach Wall): 0.01 Gy/GBq
- Absorbed Dose, min (Stomach Wall): 0.00 Gy/GBq
- Absorbed Dose in Cycle 1, Mean (Stomach Wall): 0.02 Gy/GBq
- Absorbed Dose in Cycle 1, max (Stomach Wall): 0.07 Gy/GBq
- Absorbed Dose in Cycle 1, min (Stomach Wall): 0.00 Gy/GBq
- Absorbed Dose, Mean (Testes): 0.01 Gy/GBq
- Absorbed Dose, max (Testes): 0.07 Gy/GBq
- Absorbed Dose, median (Testes): 0.01 Gy/GBq
- Absorbed Dose, min (Testes): 0.00 Gy/GBq
- Absorbed Dose in Cycle 1, Mean (Testes): 0.01 Gy/GBq
- Absorbed Dose in Cycle 1, max (Testes): 0.07 Gy/GBq
- Absorbed Dose in Cycle 1, min (Testes): 0.00 Gy/GBq
- Absorbed Dose, Mean (Thymus): 0.01 Gy/GBq
- Absorbed Dose, max (Thymus): 0.07 Gy/GBq
- Absorbed Dose, median (Thymus): 0.01 Gy/GBq
- Absorbed Dose, min (Thymus): 0.00 Gy/GBq
- Absorbed Dose in Cycle 1, Mean (Thymus): 0.01 Gy/GBq
- Absorbed Dose in Cycle 1, max (Thymus): 0.07 Gy/GBq
- Absorbed Dose in Cycle 1, min (Thymus): 0.00 Gy/GBq
- Absorbed Dose, Mean (Thyroid): 0.01 Gy/GBq
- Absorbed Dose, max (Thyroid): 0.07 Gy/GBq
- Absorbed Dose, median (Thyroid): 0.01 Gy/GBq
- Absorbed Dose, min (Thyroid): 0.00 Gy/GBq
- Absorbed Dose in Cycle 1, Mean (Thyroid): 0.01 Gy/GBq
- Absorbed Dose in Cycle 1, max (Thyroid): 0.07 Gy/GBq
- Absorbed Dose in Cycle 1, min (Thyroid): 0.00 Gy/GBq
- Absorbed Dose, Mean (Total Body): 0.02 Gy/GBq
- Absorbed Dose, max (Total Body): 0.09 Gy/GBq
- Absorbed Dose, median (Total Body): 0.02 Gy/GBq
- Absorbed Dose, min (Total Body): 0.01 Gy/GBq
- Absorbed Dose in Cycle 1, Mean (Total Body): 0.02 Gy/GBq
- Absorbed Dose in Cycle 1, max (Total Body): 0.09 Gy/GBq
- Absorbed Dose in Cycle 1, min (Total Body): 0.01 Gy/GBq
- Absorbed Dose, Mean (Urinary Bladder wall): 0.41 Gy/GBq
- Absorbed Dose, max (Urinary Bladder wall): 0.50 Gy/GBq
- Absorbed Dose, median (Urinary Bladder wall): 0.41 Gy/GBq
- Absorbed Dose, min (Urinary Bladder wall): 0.33 Gy/GBq
- Absorbed Dose in Cycle 1, Mean (Urinary Bladder wall): 0.40 Gy/GBq
- Absorbed Dose in Cycle 1, max (Urinary Bladder wall): 0.47 Gy/GBq
- Absorbed Dose in Cycle 1, min (Urinary Bladder wall): 0.33 Gy/GBq
- mean red marrow absorbed dose, remaining 20 patients (cycle 1, excluding six patients with unusually high marrow doses and the patient with a superscan): 0.02±0.02 Gy/GBq
- mean red marrow (bone marrow) absorbed radiation dose (cycle 1, image-based method (L2-L4), mean±SD, patient 42-030 excluded): 0.08±0.12 Gy/GBq
- absorbed radiation dose per gram of tissue, kidneys [1]: 0.41±0.15 Gy/GBq
- absorbed radiation dose per gram of tissue, lacrimal glands [1]: 0.40±0.36 Gy/GBq
- absorbed radiation dose per gram of tissue, left colon [1]: 0.47±0.31 Gy/GBq
- absorbed radiation dose per gram of tissue, rectum [1]: 0.44±0.30 Gy/GBq
- absorbed radiation dose per gram of tissue, urinary bladder [1]: 0.41±0.05 Gy/GBq
- absorbed radiation dose per gram of tissue, salivary glands (cycle 1, target 7.4±10% GBq, mean±SD, patients 42-030 and 12-004 excluded): 0.19±0.16 Gy/GBq
